From patent US6706740B2, “Fungicidal heterocyclic aromatic amides and their compositions, methods of use and preparation” (Dow AgroSciences LLC, priority 1999, dated 2004)

Legend:
Assay type in all cases: cell-based
[1] = tested on: Magnaporthe grisea (Pyricularia oryzae—PYRIOR); assay: microbe, parasite or virus in culture; settings: Pyricularia oryzae, read-out: PYRIOR in vitro Growth Inhibition
[2] = tested on: Rhizoctonia solani (RHIZSO); assay: microbe, parasite or virus in culture; settings: Rhizoctonia solani, read-out: RHIZSO in vitro Growth Inhibition
[3] = tested on: Mycosphaerella graminicola (Septoria tritici—SEPTTR); assay: In vitro fungal growth inhibition, Mycosphaerella graminicola (SEPTTR); settings: Zymoseptoria tritici; 25 ppm in growth medium; read-out: SEPTTR in vitro Growth Inhibition
[4] = tested on: Stagonospora nodorum (Leptosphaeria nodorum—LEPTNO); assay: In vitro fungal growth inhibition, Stagonospora nodorum (LEPTNO); settings: Leptosphaeria; 25 ppm in growth medium; read-out: LEPTNO in vitro Growth Inhibition
[5] = tested on: Phytophthora infestans (PHYTIN); assay: microbe, parasite or virus in culture; settings: Phytophthora infestans, read-out: PHYTIN in vitro Growth Inhibition
Ustilago maydis (USTIMA) = assay: microbe, parasite or virus in culture; settings: Mycosarcoma maydis, read-out: USTIMA in vitro Growth Inhibition

| SMILES | inhibition at 25 ppm [1] | inhibition at 25 ppm [2] | inhibition at 25 ppm [3] | inhibition at 25 ppm [4] | inhibition at 25 ppm [5] | inhibition at 25 ppm (Ustilago maydis (USTIMA)) |
| --- | --- | --- | --- | --- | --- | --- |
| COc1ccnc(C(=O)N[C@H]2COC(=O)[C@H](Cc3ccccc3)[C@@H](OC(=O)C(C)C)[C@H](C)OC2=O)c1OC(=O)c1cccc(C(F)(F)F)c1 [Compound 640] | < 80% | < 80% | < 80% | > 80% | < 80% | < 80% |
| COc1ccnc(C(=O)N[C@H]2COC(=O)[C@H](Cc3ccccc3)[C@@H](OC(=O)C(C)C)[C@H](C)OC2=O)c1OC(=O)c1ccc(F)cc1F [Compound 638] | < 80% | < 80% | < 80% | > 80% | < 80% | < 80% |
| COc1ccnc(C(=O)N[C@H]2COC(=O)[C@H](Cc3ccccc3)[C@@H](OC(=O)C(C)C)[C@H](C)OC2=O)c1OC(=O)c1ccc(OC(Cl)(Cl)Cl)cc1 [Compound 635] | < 80% | < 80% | < 80% | > 80% | < 80% | < 80% |
| COc1ccnc(C(=O)NCCCCC(=O)Oc2cccnc2Br)c1O [Compound 366] | < 80% | < 80% | < 80% | < 80% | > 80% | < 80% |
| COc1ccnc(C(=O)N[C@H]2COC(=O)[C@H](Cc3ccccc3)[C@@H](OC(=O)C(C)C)[C@H](C)OC2=O)c1OC(=O)c1snnc1C [Compound 676] | < 80% | < 80% | < 80% | > 80% | < 80% | < 80% |
| COc1ccnc(C(=O)NCC(=O)OC2CCCCC2)c1O [Compound 372] | < 80% | > 80% | < 80% | < 80% | < 80% | < 80% |
| COc1ccnc(C(=O)NCCCCC(=O)Oc2cccc(NC(C)=O)c2)c1O [Compound 367] | > 80% | < 80% | < 80% | < 80% | < 80% | < 80% |
| COc1ccnc(C(=O)N[C@H]2COC(=O)[C@H](Cc3ccccc3)[C@@H](OC(=O)C(C)C)[C@H](C)OC2=O)c1OC(=O)c1ccc(Cl)c(Cl)c1 [Compound 644] | < 80% | < 80% | < 80% | > 80% | < 80% | < 80% |
| COc1ccnc(C(=O)N[C@H]2COC(=O)[C@H](Cc3ccccc3)[C@@H](OC(=O)C(C)C)[C@H](C)OC2=O)c1OC(=O)c1ccc(F)cc1 [Compound 637] | < 80% | < 80% | < 80% | > 80% | < 80% | < 80% |
| COc1ccnc(C(=O)N[C@H]2COC(=O)[C@H](Cc3ccccc3)[C@@H](OC(=O)C(C)C)[C@H](C)OC2=O)c1OC(=O)c1ccnc(Cl)c1 [Compound 672] | < 80% | < 80% | < 80% | > 80% | < 80% | < 80% |
| COc1ccnc(C(=O)N[C@H]2COC(=O)[C@H](Cc3ccccc3)[C@@H](OC(=O)C(C)C)[C@H](C)OC2=O)c1OC(=O)c1ccc(Cl)cc1Cl [Compound 643] | < 80% | < 80% | < 80% | > 80% | < 80% | < 80% |
| COc1ccnc(C(=O)N[C@H]2COC(=O)[C@H](Cc3ccccc3)[C@@H](OC(=O)C(C)C)[C@H](C)OC2=O)c1OC(=O)c1c(F)c(F)c(F)c(F)c1F [Compound 642] | < 80% | < 80% | < 80% | > 80% | < 80% | < 80% |
| COc1ccnc(C(=O)N[C@H]2COC(=O)[C@H](Cc3ccccc3)[C@@H](OC(=O)C(C)C)[C@H](C)OC2=O)c1OC(=O)Oc1ccccc1 [Compound 697] | < 80% | < 80% | < 80% | > 80% | < 80% | < 80% |
| COc1ccnc(C(=O)N[C@H]2COC(=O)[C@H](Cc3ccccc3)[C@@H](OC(=O)C(C)C)[C@H](C)OC2=O)c1OC(=O)c1cccc(C)c1C [Compound 632] | < 80% | < 80% | < 80% | > 80% | < 80% | < 80% |
| COc1ccnc(C(=O)N[C@H]2COC(=O)[C@H](Cc3ccccc3)[C@@H](OC(=O)C(C)C)[C@H](C)OC2=O)c1OC(=O)c1c(-c2c(Cl)cccc2Cl)noc1C [Compound 677] | < 80% | < 80% | < 80% | > 80% | < 80% | < 80% |
| COc1ccnc(C(=O)NCCCCCCCC(=O)Oc2ccc(C)c(Cl)c2)c1O [Compound 368] | < 80% | > 80% | < 80% | < 80% | < 80% | < 80% |
| COc1ccnc(C(=O)N[C@H]2COC(=O)[C@H](Cc3ccccc3)[C@@H](OC(=O)C(C)C)[C@H](C)OC2=O)c1OC(=O)Cc1cccs1 [Compound 675] | > 80% | < 80% | < 80% | > 80% | < 80% | < 80% |
| COc1ccnc(C(=O)N[C@H]2COC(=O)[C@H](Cc3ccccc3)[C@@H](OC(=O)C(C)C)[C@H](C)OC2=O)c1OC(=O)c1cc(Cl)cnc1Cl [Compound 671] | < 80% | < 80% | < 80% | > 80% | < 80% | < 80% |
| COc1ccnc(C(=O)NC(Cc2ccc(OCc3ccccc3)cc2)C(=O)O)c1O (stereo not drawn) [Compound 374] | < 80% | < 80% | < 80% | > 80% | < 80% | < 80% |
| COc1ccnc(C(=O)NC(C)C(=O)OCCCCCc2ccccc2)c1O (stereo not drawn) [Compound 370] | < 80% | < 80% | < 80% | > 80% | < 80% | < 80% |
| COc1ccnc(C(=O)N[C@H]2COC(=O)[C@H](Cc3ccccc3)[C@@H](OC(=O)C(C)C)[C@H](C)OC2=O)c1OC(=O)C(Cl)c1ccccc1 (stereo partly drawn) [Compound 649] | > 80% | < 80% | < 80% | > 80% | < 80% | < 80% |
| C=CCOC(=O)Oc1c(OC)ccnc1C(=O)N[C@H]1COC(=O)[C@H](Cc2ccccc2)[C@@H](OC(=O)C(C)C)[C@H](C)OC1=O [Compound 681] | > 80% | > 80% | < 80% | > 80% | < 80% | < 80% |
| COc1ccnc(C(=O)NC(CC2CCCCC2)C(=O)OC2CCNC2)c1O (stereo not drawn) [Compound 369] | < 80% | > 80% | < 80% | < 80% | < 80% | < 80% |
| COc1ccnc(C(=O)N[C@H]2COC(=O)[C@H](Cc3ccccc3)[C@@H](OC(=O)C(C)C)[C@H](C)OC2=O)c1OC(=O)c1ccccc1F [Compound 636] | < 80% | < 80% | < 80% | > 80% | < 80% | < 80% |
| COc1ccnc(C(=O)N[C@H]2COC(=O)[C@H](Cc3ccccc3)[C@@H](OC(=O)C(C)C)[C@H](C)OC2=O)c1OC(=O)c1ccccc1C [Compound 628] | < 80% | < 80% | < 80% | > 80% | < 80% | < 80% |
| COc1ccnc(C(=O)N[C@H]2COC(=O)[C@H](Cc3ccccc3)[C@@H](OC(=O)C(C)C)[C@H](C)OC2=O)c1OC(=O)c1ccccc1Br [Compound 647] | < 80% | < 80% | < 80% | > 80% | < 80% | < 80% |
| COc1ccnc(C(=O)NCC(=O)OCCCCCc2ccccc2)c1O [Compound 371] | < 80% | > 80% | < 80% | < 80% | < 80% | < 80% |
| COc1ccnc(C(=O)NCCCCCCCCCCCC(=O)Oc2cccc(NC(C)=O)c2)c1O [Compound 365] | > 80% | < 80% | < 80% | < 80% | < 80% | < 80% |
| CCCSC(=O)Oc1c(OC)ccnc1C(=O)N[C@H]1COC(=O)[C@H](Cc2ccccc2)[C@@H](OC(=O)C(C)C)[C@H](C)OC1=O [Compound 699] | > 80% | < 80% | < 80% | > 80% | < 80% | < 80% |
